Assay results as given in patent US12630547B2, “RAS protein degraders, pharmaceutical compositions thereof, and their therapeutic applications” (BioTheryX, Inc., priority 2019, dated 2026).

How the values were obtained:
Format in all cases: cell-based
H358 cells = test: Cell viability assay (CELLTITER-GLO), H358 cells; details: Table 4; 3 days
Summary of the method: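 Luminescent ATP read-out (CellTiter-Glo) after 3-day incubation at 37 °C of H358 cells plated at 4,000/well in RPMI 1640 with 10% FBS. Values are either IC50 bins (A ≤1 μM through D >10 μM) or % of DMSO viability at 10 μM or 1 μM, bins A <10% through D ≥50%.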

H23 cells = test: Cell viability assay (CELLTITER-GLO), H23 cells; details: Table 4; 3 days
Summary of the method: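 Luminescent CellTiter-Glo readout after 3-day compound treatment (37° C, 5% CO2) of H23 cells plated at 4,000 cells/well in RPMI 1640 plus 10% FBS, DMSO as control. IC50 values given as categorical ranges.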

MOLM-13 cells = test: Cell viability assay (CELLTITER-GLO), MOLM-13 cells; details: Homo sapiens, MOLM-13, 72 h; Table 2; compound at 10 μM, 3 days; read-out: Effect on MOLM-13 cell viability (% DMSO)
Summary of the method: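 Viability, as % of DMSO control, was read by CellTiter-Glo luminescence after a 3-day compound exposure (single dose of 10 μM or 1 μM) at 37 °C. Cells plated at 4,000/well in RPMI 1640 with 10% FBS. Results reported as categories A <10%, B 10–<25%, C 25–<50%, D ≥50%.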

Inhibition of H358 cells, IC50 (class) (H358 cells) | Compound | Inhibition of H23 cells, IC50 (class) (H23 cells) | viability at 10 µM (MOLM-13 cells) [%]
B′ | CCC(=O)N1C[C@@H]2C(=O)N(CCCCCCCN3CCC(c4cc(F)cc5c4CN(C4CCC(=O)NC4=O)C5=O)CC3)c3cnc4c(F)c(-c5c(O)cccc5F)c(Cl)cc4c3N2C[C@H]1C (stereo partly drawn) [Compound 67, 3-(4-(1-(7-((2R,4aR)-11-Chloro-9-fluoro-10-(2-fluoro-6-hydroxyphenyl)-2-methyl-5-oxo-3-propionyl-1,2,3,4,4a,5-hexahydro-6H-pyrazino[11′,2′:4,5]pyrazino[2,3-c]quinolin-6-yl)heptyl)piperidin-4-yl)-6-fluoro-1-oxoisoindolin-2-yl)piperidine-2,6-dione] | B′ | < 10
A′ | C=CC(=O)N1CCN(c2nc(=O)n(-c3ccccc3C(C)C)c3nc(-c4c(F)cccc4OCCCCCCCN4CCC(c5cc(F)cc6c5CN(C5CCC(=O)NC5=O)C6=O)CC4)c(F)cc23)[C@@H](C)C1 (stereo partly drawn) [Compound 72, 3-(4-(1-(7-(2-(4-((S)-4-Acryloyl-2-methylpiperazin-1-yl)-6-fluoro-1-(2-isopropylphenyl)-2-oxo-1,2-dihydropyrido[2,3-d]pyrimidin-7-yl)-3-fluorophenoxy)heptyl)piperidin-4-yl)-6-fluoro-1-oxoisoindolin-2-yl)piperidine-2,6-dione] | B′ | < 10
B′ | CCC(=O)N1CCN(c2nc(=O)n(-c3ccccc3C(C)C)c3nc(-c4c(F)cccc4OCCCCCCCN4CCC(c5cc(F)cc6c5CN(C5CCC(=O)NC5=O)C6=O)CC4)c(F)cc23)[C@@H](C)C1 (stereo partly drawn) [Compound 73, 3-(6-Fluoro-4-(1-(7-(3-fluoro-2-(6-fluoro-1-(2-isopropylphenyl)-4-((S)-2-methyl-4-propionylpiperazin-1-yl)-2-oxo-1,2-dihydropyrido[2,3-d]pyrimidin-7-yl)phenoxy)heptyl)piperidin-4-yl)-1-oxoisoindolin-2-yl)piperidine-2,6-dione] | B′ | 10 to 25
C′ | CCC(=O)N1CCN(c2ncnc3c(F)c(-c4c(F)cccc4OCCCCCCCCCCC(=O)N[C@H](C(=O)N4C[C@H](O)C[C@H]4C(=O)NCc4ccc(-c5scnc5C)cc4)C(C)(C)C)c(Cl)cc23)CC1 [Compound 77, (2S,4R)-1-((2S)-2-(11-(2-(6-Chloro-8-fluoro-4-(4-propionylpiperazin-1-yl)quinazolin-7-yl)-3-fluorophenoxy)undecanamido)-3,3-dimethylbutanoyl)-4-hydroxy-N-(4-(4-methylthiazol-5-yl)benzyl)pyrrolidine-2-carboxamide] | D′ | ≥ 50
B′ | CCC(=O)N1CCN(c2ncnc3c(F)c(-c4c(F)cccc4OCCCCCCC(=O)N[C@H](C(=O)N4C[C@H](O)C[C@H]4C(=O)NCc4ccc(-c5scnc5C)cc4)C(C)(C)C)c(Cl)cc23)CC1 [Compound 78, (2S,4R)-1-((2S)-2-(7-(2-(6-Chloro-8-fluoro-4-(4-propionylpiperazin-1-yl)quinazolin-7-yl)-3-fluorophenoxy)heptanamido)-3,3-dimethylbutanoyl)-4-hydroxy-N-(4-(4-methylthiazol-5-yl)benzyl)pyrrolidine-2-carboxamide] | C′ | < 10
C′ | O=C1CCC(N2Cc3c(cc(F)cc3C3CCN(CCCCCCCOc4cccc(F)c4-c4c(Cl)cc5c(N6CCN(C(=O)C7COC7)CC6)ncnc5c4F)CC3)C2=O)C(=O)N1 (stereo not drawn) [Compound 81, 3-(4-(1-(7-(2-(6-Chloro-8-fluoro-4-(4-(oxetane-3-carbonyl)piperazin-1-yl)quinazolin-7-yl)-3-fluorophenoxy)heptyl)piperidin-4-yl)-6-fluoro-1-oxoisoindolin-2-yl)piperidine-2,6-dione] | C′ | ≥ 50

The remaining lines, values behind:

Compound | Inhibition of H358 cells, IC50 (class) (H358 cells) | Inhibition of H23 cells, IC50 (class) (H23 cells) | viability at 10 µM (MOLM-13 cells) [%]
C=CC(=O)N1CCN(c2ncnc3c(F)c(-c4c(F)cccc4OCCCCCCCN4CCC(c5scc6c5CN(C5CCC(=O)NC5=O)C6=O)CC4)c(Cl)cc23)CC1 (stereo not drawn) [Compound 70, 3-(1-(1-(7-(2-(4-(4-Acryloylpiperazin-1-yl)-6-chloro-8-fluoroquinazolin-7-yl)-3-fluorophenoxy)heptyl)piperidin-4-yl)-4-oxo-4H-thieno[3,4-c]pyrrol-5(6H)-yl)piperidine-2,6-dione] | A′ | B′ | < 10
CCC(=O)N1CCN(c2ncnc3c(F)c(-c4c(F)cccc4OCCCCCCCN4CCC(c5scc6c5CN(C5CCC(=O)NC5=O)C6=O)CC4)c(Cl)cc23)CC1 (stereo not drawn) [Compound 71, 3-(1-(1-(7-(2-(6-chloro-8-fluoro-4-(4-propionylpiperazin-1-yl)quinazolin-7-yl)-3-fluorophenoxy)heptyl)piperidin-4-yl)-4-oxo-4H-thieno[3,4-c]pyrrol-5(6H)-yl)piperidine-2,6-dione] | B′ | B′ | < 10
C=CC(=O)N1CCN(c2nc(OCCCCCCCN3CCC(c4cc(F)cc5c4CN(C4CCC(=O)NC4=O)C5=O)CC3)nc3c2CCN(c2cc(O)cc4ccccc24)C3)CC1 (stereo not drawn) [Compound 75, 3-(4-(1-(7-((4-(4-Acryloylpiperazin-1-yl)-7-(3-hydroxynaphthalen-1-yl)-5,6,7,8-tetrahydropyrido[3,4-d]pyrimidin-2-yl)oxy)heptyl)piperidin-4-yl)-6-fluoro-1-oxoisoindolin-2-yl)piperidine-2,6-dione] | C′ | B′ | 25 to 50
C=CC(=O)N1CCN(c2ncnc3c(F)c(-c4c(F)cccc4OCCCCCCCCCCC(=O)N[C@H](C(=O)N4C[C@H](O)C[C@H]4C(=O)NCc4ccc(-c5scnc5C)cc4)C(C)(C)C)c(Cl)cc23)CC1 [Compound 76, (2S,4R)-1-((2S)-2-(11-(2-(4-(4-Acryloylpiperazin-1-yl)-6-chloro-8-fluoroquinazolin-7-yl)-3-fluorophenoxy)undecanamido)-3,3-dimethylbutanoyl)-4-hydroxy-N-(4-(4-methylthiazol-5-yl)benzyl)pyrrolidine-2-carboxamide] | B′ | B′ | < 10
O=C1CCC(N2Cc3c(cc(F)cc3C3CCN(CCCCCCCOc4cccc(F)c4-c4c(Cl)cc5c(N6CCN(C(=O)C7CCNC7)CC6)ncnc5c4F)CC3)C2=O)C(=O)N1 (stereo not drawn) [Compound 79, 3-(4-(1-(7-(2-(6-Chloro-8-fluoro-4-(4-(pyrrolidine-3-carbonyl)piperazin-1-yl)quinazolin-7-yl)-3-fluorophenoxy)heptyl)piperidin-4-yl)-6-fluoro-1-oxoisoindolin-2-yl)piperidine-2,6-dione] | B′ | B′ | < 10
CC(C)/C=C(\C#N)C(=O)N1CCN(c2ncnc3c(F)c(-c4c(F)cccc4OCCCCCCCN4CCC(c5cc(F)cc6c5CN(C5CCC(=O)NC5=O)C6=O)CC4)c(Cl)cc23)CC1 (stereo not drawn) [Compound 80, (E)-2-(4-(6-Chloro-7-(2-((7-(4-(2-(2,6-dioxopiperidin-3-yl)-6-fluoro-1-oxoisoindolin-4-yl)piperidin-1-yl)heptyl)oxy)-6-fluorophenyl)-8-fluoroquinazolin-4-yl)piperazine-1-carbonyl)-4-methylpent-2-enenitrile] | B′ | B′ | < 10
